Measurements as given in BindingDB's records for doi:10.1021/jm00160a020 (1986).

Target: Platelet-activating factor receptor (Oryctolagus cuniculus)
Test: Inhibition of PAF receptor binding to rabbit platelet plasma membranes

| SMILES | IC50 |
| --- | --- |
| COc1ccc(C2CC[C@H](c3ccc(OC)c(OC)c3)O2)cc1OC (some centres not stated) | > 3 µM |
| COc1ccc([C@H]2CC[C@H](c3ccc(OC)c(OC)c3)O2)cc1OC | 0.5 µM |
